Test results: PubChem BioAssay AID1963856 (Molecular Pharmacology Branch, DTP, NCI, 2024)
Activity calls are given as the source filed them. How the source made its calls: active means viability on the fitted dose curve at most 10% of control; inactive means the rest.

System: LG0567-F671-PDC KRAS tumor spheroid viability
Assay: Anticancer human tumor LG0567-F671-PDC patient-derived lung adenocarcinoma cell line growth inhibition [KRAS2]
Conditions: spheroids with HUVEC and MSC; for IC50: curve of first compound; for viability, T/C: stronger effect = lower value
Method in brief: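 KRAS-mutant tumor cells were grown as spheroids with HUVEC endothelial cells and human MSCs as stroma. Targeted agents were tested alone and with KRAS pathway inhibitors. Doses started at or near clinical Cmax, or 10 microM, descending half-log.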

[1] = second compound 0.1 µM, first compound 0.000316 µM
[2] = second compound 0.1 µM, first compound 0.001 µM
[3] = second compound 0.1 µM, first compound 0.00316 µM
[4] = second compound 0.1 µM, first compound 0.01 µM
[5] = second compound 0.1 µM, first compound 0.0316 µM
[6] = second compound 0.1 µM, first compound 0.1 µM
[7] = second compound 0.316 µM, first compound 0.000316 µM
[8] = second compound 0.316 µM, first compound 0.001 µM
[9] = second compound 0.316 µM, first compound 0.00316 µM
[10] = second compound 0.316 µM, first compound 0.01 µM
[11] = second compound 0.316 µM, first compound 0.0316 µM
[12] = second compound 0.316 µM, first compound 0.1 µM
[13] = second compound 1 µM, first compound 0.000316 µM
[14] = second compound 1 µM, first compound 0.001 µM
[15] = second compound 1 µM, first compound 0.00316 µM
[16] = second compound 1 µM, first compound 0.01 µM
[17] = second compound 1 µM, first compound 0.0316 µM
[18] = second compound 1 µM, first compound 0.1 µM
[19] = second compound 3.16 µM, first compound 0.000316 µM
[20] = second compound 3.16 µM, first compound 0.001 µM
[21] = second compound 3.16 µM, first compound 0.00316 µM
[22] = second compound 3.16 µM, first compound 0.01 µM
[23] = second compound 3.16 µM, first compound 0.0316 µM
[24] = second compound 3.16 µM, first compound 0.1 µM
[25] = second compound 10 µM, first compound 0.000316 µM
[26] = second compound 10 µM, first compound 0.001 µM
[27] = second compound 10 µM, first compound 0.00316 µM
[28] = second compound 10 µM, first compound 0.01 µM
[29] = second compound 10 µM, first compound 0.0316 µM
[30] = second compound 10 µM, first compound 0.1 µM
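Wherever IC50 is given: drug exposure lasted seven days after spheroids formed for three days.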
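Wherever viability, T/C is given: drug exposure lasted seven days after spheroids formed for three days; 100% = DMSO vehicle control viability.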

SMILES	IC50 (second compound 0.1 µM) [nM]	IC50 (second compound 0.316 µM) [nM]	IC50 (second compound 1 µM) [nM]	IC50 (second compound 3.16 µM) [nM]	IC50 (second compound 10 µM) [nM]	viability, T/C [1] [%]	viability, T/C [2] [%]	viability, T/C [3] [%]	viability, T/C [4] [%]	viability, T/C [5] [%]	viability, T/C [6] [%]	viability, T/C [7] [%]	viability, T/C [11] [%]	viability, T/C [12] [%]	viability, T/C [17] [%]	viability, T/C [18] [%]	viability, T/C [23] [%]	viability, T/C [24] [%]	viability, T/C [29] [%]	viability, T/C [30] [%]	also measured
CN(C)C/C=C/C(=O)Nc1cc2c(Nc3ccc(F)c(Cl)c3)ncnc2cc1O[C@H]1CCOC1 + CC1OCC2(CCN(c3cnc(Sc4ccnc(N)c4Cl)c(N)n3)CC2)C1N	4.99	< 0.316	> 100	< 0.316	< 0.316	55.9	51.9	50.8	52.2	43.3	49.4	44.1	29.9	32.7	59	69.3	18.4	21.6	13.4	12.9	viability, T/C [8]: 40.5%; viability, T/C [9]: 43.1%; viability, T/C [10]: 30.6%; viability, T/C [13]: 106%; viability, T/C [14]: 84.5%; viability, T/C [15]: 96.2%; viability, T/C [16]: 78.9%; viability, T/C [19]: 19.9%; viability, T/C [20]: 15.2%; viability, T/C [21]: 16.2%; viability, T/C [22]: 21.2%; outcome [25]: inactive; outcome [26]: inactive; viability, T/C [27]: 15.9%; outcome [28]: inactive
CN(C)C/C=C/C(=O)Nc1cc2c(Nc3ccc(F)c(Cl)c3)ncnc2cc1O[C@H]1CCOC1 + COc1cc2nc(C)nc(NC(C)c3cc(N)cc(C(F)(F)F)c3)c2cc1OC1CCOC1	30	4.27	11.2	< 0.316	< 0.316	88.5	68.1	56.5	51.2	51.6	48.2	69.5	45.1	46.2	39.8	49.3	29.8	32.1	17.8	22.4	viability, T/C [8]: 60.9%; viability, T/C [9]: 54.4%; viability, T/C [10]: 40.8%; viability, T/C [13]: 85.9%; viability, T/C [14]: 66.4%; viability, T/C [15]: 57.5%; viability, T/C [16]: 53.9%; viability, T/C [19]: 45.9%; viability, T/C [20]: 43.8%; viability, T/C [21]: 36.4%; viability, T/C [22]: 32.1%; viability, T/C [25]: 39.6%; viability, T/C [26]: 35.5%; viability, T/C [27]: 27.8%; viability, T/C [28]: 24.4%
CC1(C)CCC(CN2CCN(c3ccc(C(=O)NS(=O)(=O)c4ccc(NCC5CCOCC5)c([N+](=O)[O-])c4)c(Oc4cnc5[nH]ccc5c4)c3)CC2)=C(c2ccc(Cl)cc2)C1 + CC1OCC2(CCN(c3cnc(Sc4ccnc(N)c4Cl)c(N)n3)CC2)C1N	< 31.6	< 31.6	< 31.6	< 31.6	< 31.6	–	–	–	–	47	44.4	–	42.2	31.9	27.8	26.2	22.9	24	12.2	15.4	viability, T/C (second compound 0.1 µM, first compound 0.316 µM): 41.8%; viability, T/C (second compound 0.1 µM, first compound 1 µM): 39.1%; viability, T/C (second compound 0.1 µM, first compound 3.16 µM): 15.4%; viability, T/C (second compound 0.1 µM, first compound 10 µM): 3.67%; viability, T/C (second compound 0.316 µM, first compound 0.316 µM): 33.4%; viability, T/C (second compound 0.316 µM, first compound 1 µM): 32.9%; viability, T/C (second compound 0.316 µM, first compound 3.16 µM): 9.77%; viability, T/C (second compound 0.316 µM, first compound 10 µM): 2.77%; viability, T/C (second compound 1 µM, first compound 0.316 µM): 27%; viability, T/C (second compound 1 µM, first compound 1 µM): 27.1%; viability, T/C (second compound 1 µM, first compound 3.16 µM): 8.05%; viability, T/C (second compound 1 µM, first compound 10 µM): 1.79%; viability, T/C (second compound 3.16 µM, first compound 0.316 µM): 18.3%; viability, T/C (second compound 3.16 µM, first compound 1 µM): 16.1%; viability, T/C (second compound 3.16 µM, first compound 3.16 µM): 2.78%; viability, T/C (second compound 3.16 µM, first compound 10 µM): 2.97%; viability, T/C (second compound 10 µM, first compound 0.316 µM): 11.1%; viability, T/C (second compound 10 µM, first compound 1 µM): 10.7%; viability, T/C (second compound 10 µM, first compound 3.16 µM): 2.4%; viability, T/C (second compound 10 µM, first compound 10 µM): 0.54%
